Values after ≈ are worked out from the molar mass of the structure shown. Read-outs that look alike come from different tables or passages of the source.
Assays:
MRSA ATCC 43300 = conditions: n = 2
Experimental: A positive control of a row of just the bacteria and a negative control of only the medium were included for every plate tested.
The compounds along with standard antibiotics were serially diluted 2-fold across the 96-well plates. […] A sample of each culture was then diluted 40-fold in fresh MH broth (in presence and absence of Tween) and incubated at 37°C for 2 to 3 h.
For experiments in the presence of surfactant, 2% beractant (25 mg/ml) was added to the mid-log-phase cultures and mixed gently and added to all the 96-well plates. For experiments in the presence of serum, a mixture of 50% of human serum along with 50% MHB was prepared and used throughout the experiment.

[1] = literature values, reference given; cited from earlier work
Description: Other assay additives can affect MIC values. […] Plasma protein binding has been implicated as a major factor limiting the active free concentration of many clinically important antibiotics ([37][–][42]).

| Compound | MIC (MRSA ATCC 43300; Corning flat NBS plate, MHB +0.002% T80, no further additive) | MIC (MRSA ATCC 43300; Corning flat PS plate, MHB −T80, no additive) | protein binding [1] |
| --- | --- | --- | --- |
| CNC(=O)[C@H](CCCCNC(=O)[C@H]1NC(=O)[C@H]2NC(=O)[C@H](NC(=O)[C@@H]3NC(=O)[C@H](CC(N)=O)NC(=O)[C@H](NC(=O)[C@@H](CC(C)C)NC)[C@H](O)c4ccc(c(Cl)c4)Oc4cc3cc(c4O[C@@H]3O[C@H](CO)[C@@H](O)[C@H](O)[C@H]3O[C@H]3C[C@](C)(N)[C@H](O)[C@H](C)O3)Oc3ccc(cc3Cl)[C@H]2O)c2ccc(O)c(c2)-c2c(O)cc(O)cc21)NC(=O)[C@H](CCCCN)NC(=O)[C@H](CCCCN)NC(=O)[C@H](CCCCNC(=O)c1ccc(Oc2ccccc2)cc1)NC(=O)c1ccc(Oc2ccccc2)cc1 [MCC310] | 0.007 µg/mL (≈ 0.00296 µM) | 4 µg/mL (≈ 1.69 µM) | – |
| CC(=O)NC[C@H]1CN(c2ccc(N3CCOCC3)c(F)c2)C(=O)O1 [linezolid] | – | – | 31% |
| C[C@@H](O)[C@H]1C(=O)N2C(C(=O)O)=C(S[C@@H]3CN[C@H](C(=O)N(C)C)C3)[C@H](C)[C@H]12 [meropenem] | – | – | 2% |
| daptomycin | – | – | 92% |

— article PMC6325200, “Effects of Microplate Type and Broth Additives on Microdilution MIC Susceptibility Assays” (Antimicrobial Agents and Chemotherapy, 2018)
